Earlier results, collected in patent publication US5817883A, “Processes for producing hydroxyaldehydes” (Union Carbide Chemicals & Plastics Technology Corporation, priority 1997, dated 1998).

Details: Table I, organophosphorus ligand basicity

Compared with `CCP(CC)C(C)(C)C` [Diethyl-tert-butylphosphine], `CCP(CC)CC` [Triethylphosphine] is lower in pKb: 10.1 for the first, 8.7 for the second.

Compared with `CCP(CC)c1ccccc1` [Diethylphenylphosphine], `CCP(c1ccccc1)c1ccccc1` [Diphenylethylphosphine] is lower in pKb: 6.4 for the first, 4.9 for the second.

First: c1ccc(P(c2ccccc2)C2CCCCC2)cc1 [Diphenylcyclohexylphosphine]
Second: CP(c1ccccc1)c1ccccc1 [Diphenylmethylphosphine]
The pKb of the first is higher: 5 for the first, 4.5 for the second.

Going from `CN(C)c1ccc(P(c2ccc(N(C)C)cc2)c2ccc(N(C)C)cc2)cc1` [Tri(p-N,N-dimethylaminophenyl)phosphine] to `COc1ccc(P(c2ccc(OC)cc2)c2ccc(OC)cc2)cc1` [Tri(p-methoxyphenyl)phosphine], the pKb falls from 8.65 to 4.6.

First: CCCCP(CCCC)CCCC [Tri-n-butylphosphine]
Second: CCCP(CCC)CCC [Tri-n-propylphosphine]
The pKb of the first is lower: 8.4 for the first, 8.7 for the second.

First: CCCCCCCCP(CCCCCCCC)CCCCCCCC [Tri-n-octylphosphine]
Second: CP(C)C [Trimethylphosphine]
The pKb of the first is lower: 8.4 for the first, 8.7 for the second.

First: C1CCC(P(C2CCCCC2)C2CCCCC2)CC1 [Tricyclohexylphosphine]
Second: c1ccc(P(c2ccccc2)c2ccccc2)cc1 [Triphenylphosphine, reference compound]
The pKb of the first is higher: 10 for the first, 2.74 for the second.

Same assay, conditions: basicity of reference phosphine

In the case of `c1ccc(P(c2ccccc2)c2ccccc2)cc1` [Triphenylphosphine, reference compound], the pKb is listed as 2.74.
